The results in this text go back to US10450327B2, “Epidithiodioxopiperazine compound or its derivatives, and the use thereof” (priority 2011, dated 2019).

Data set [1] relates to PrxII knocked down HASMCs. In words: Intracellular hydrogen peroxide (DCF fluorescence), PrxII knocked down HASMCs. Conditions: concentration-dependent. Type of data set: cell-based, human. On the procedure: (§1) First, the ability of GT to eliminate intracellular hydrogen peroxide in PrxII knocked down HASMCs and HAECs was tested. The cellular hydrogen peroxide production was monitored using an oxidant-sensitive fluorescence dye (2′,7′-dihydro-chlorofluorescein diacetate, H2DCF-DA).

The next data set has as its system PrxII knocked down HAECs. In words: Intracellular hydrogen peroxide (DCF fluorescence), PrxII knocked down HAECs. Type of data set: cell-based, human. On the procedure:
as §1

A further data set deals with PDGFRβ and PLCγ1. In words: PDGF-induced signaling, immunoblot, PrxII knocked down HASMCs. Type of data set: cell-based, human. On the procedure:
(§2) The cells were rinsed with an ice-cold phosphate buffered saline (PBS) solution and then lysed in an extraction buffer solution containing 20 mM Hepes (pH 7.0), 1% Triton X-100, 150 mM NaCl, 10% glycerol, 1 mM EDTA, 2 mM EGTA, 1 mM DTT, 5 mM Na3VO4, 5 mM NaF, 1 mM AEBSF, aprotinin (5 μg/ml), and leupeptin (5 μg/ml). After being centrifuged at 12,000×g, the purified cell extracts were used for immunoblotting. In order to adjust the loading, the membranes were stripped by shaking them for 30 minutes at 60° C. in 67 mM Tris (pH 6.7), 2% SDS, and 100 mM 2-mercaptoethanol solution, and reprobed with an appropriate pan antibody.
(§3) In addition, the regulatory effects of GT on the PDGFRβ- and VEGFR2-mediated signaling pathway were examined. The GT treatment in HASMCs was quite different from PDGF-induced tyrosine phosphorylation that was enhanced by the PrxII knockdown (FIG. 12a). […] Conversely, the GT treatment in HAECs restored the VEGF-dependent activation of VEGFR2 and ERK that had been diminished by the PrxII knockdown (FIG. 12b). The effects of GT in vascular cell fuction were further validated.
In general terms: Immunoblotting shows a protein as a band on a membrane.

In a further data set the test system is VEGFR2 and ERK. In words: VEGF-induced signaling, immunoblot, PrxII knocked down HAECs. Type of data set: cell-based, human. The settings on record: 2 hours pretreatment, VEGF 10 minutes. On the procedure: as §2, §3
Lastly, the effects of GT, a representative ETP compound, on vascular cells were compared with the effects of other compounds known as anti-oxidant compounds such as N-acetylcysteine or butylated hydroxyanisole, and the results are shown in FIG. 33. Immunoblotting was performed by pretreating HAECs in which PrxII was knocked down by injecting siRNA with each compound at the concentrations indicated in the graphs for two hours, and then treating with VEGF for 10 minutes. […] These comparative experiments led the inventors of the present invention to conclude that the distinguished […] function of the ETP compounds is clearly due to the PrxII-analogous activity, and additionally to the special chemical property of the dithioketopiperazine ring.

A further data set relates to HASMCs. Type of data set: cell-based, human. The settings on record: up to 100 nM (200 nM for A4, A7, A9).
Data set [2] concerns balloon-injured rat carotid artery. Briefly: Balloon-injury model of rat carotid artery. Type of data set: in vivo. On the procedure:
Animal experiments were performed in compliance with the guidelines of Institutional Animal Care and Use Committee (IACUC) of the Ewha Womans University. Balloon injury was created using an infiltrated 2 F Fogarty balloon catheter in the left common carotid artery as follows: after the ten-week-old male Sprague-Dawley rats were anaesthetized by isoflurane gas (N2O:O2/70%:30%) inhalation, the left external carotid artery was exposed, and its branches were electrocoagulated. A catheter was pushed 1 cm in through the transverse arteriotomy of the external carotid artery, and the endothelial denudation was achieved by three passes along the common carotid artery. After the catheter was removed, the punched area was sealed and the clapped common carotid artery was opened for resuming the blood flow. Unless otherwise stated, the rats were recovered in a cage for 10 days, and subjected to histological and immunological analyses.
Rats were anesthetized, and the common carotid artery was excised after transcardiac perfusion-fixation with a heparinized saline solution containing 3.7% formaldehyde. The vessels were paraffin embedded and sectioned using a rotary microtome (Leica RM2255). Two serial tissue sections (4 μm in thickness) were obtained from the middle area of common carotid arteries, and stained with haematoxylin and eosin (HE). The luminal, internal elastic laminal, and external elastic laminal areas were measured using NIH Image v1.62. The intimal and medial areas were determined by subtracting the luminal area from the internal elastic area and subtracting the internal elastic area from the external elastic area. The values from the two serial sections for each rat were averaged for analysis.
For the in vivo injection of siRNA, a siRNA mixture specific to rat PrxII (200 nM) was premixed with a siPORT™ NeoFX™ reagent according to the instructions of the manufacturer (Ambion). Immediately after the balloon injury, the siRNA-injected mixture (200 μL) was injected through a catheter after briefly washed with Opti-MEM. After the incubation for 15 minutes, the blood flow was resumed. A siGLO-Red (Dharmacon), which is fluorescent dye-conjugated control siRNA, was used for optimizing in vivo injection efficiency. Similarly, the ETP compound (200 nM in DMSO) was injected through a catheter and incubated for 30 minutes.
Immunohistochemistry for the overoxidized 2-Cys Prxs was performed on the paraffin sections using an anti-Prx-SO2/3 antibody (1:1000 dilution). Briefly, the sections were de-waxed in xylene and rehydrated in ethanol, and subsequently the antigen retrieval was performed by boiling in a citric buffer solution (pH 6.0). After that, the sections were incubated with a primary antibody for 48 hours at 4° C. After washing three times with a phosphatebuffered saline solution, the sections were incubated with a peroxidase-conjugated secondary antibody and stained with a 3′,3′-diaminobenzidine (DAB) substrate solution. For negative staining, the Prx-502/3 antibody was blocked with the corresponding antigenic peptide (DFTFVC(SO2/3)PTEI). For indirect immunofluorescence staining, the paraffin sections were blocked with 5% normal rabbit serum (Vector Laboratories) in PBST (a PBS solution of 0.3% Triton X-100) for 1 hour at room temperature. The sections were then incubated overnight at 4° C. with the […] against rat smooth muscle α-actin (1:300 dilution) and rat CD31 (PECAM-1, 1:200 dilution). The nuclei were labeled with DAPI. After several PBST washes, the samples were incubated for 2 hours at room temperature with Alexa Fluor 568-conjugated donkey anti-mouse and Alexa Fluor 488-conjugated donkey anti-rabbit IgG antibodies. The fluorescence images were recorded on three random fields per tissue section at a screen magnification of 100× using a LSM 510 Meta confocal microscope equipped with argon and helium-neon lasers.
The paraffin sections were incubated for 10 minutes in PBS containing 0.1% Triton X-100. […]

Each structure is given as a SMILES string.

For the compound `CN1C(=O)[C@]23CC4=CC=C[C@H](O)[C@H]4N2C(=O)[C@@]1(CO)SS3` [gliotoxin], in data set [1], the “level of intracellular hydrogen peroxide increased by PDGF and PrxII knockdown” value is “completely canceled out”. Also, in the data set on PrxII knocked down HAECs, the “basal level of intracellular hydrogen peroxide enhanced by PrxII knockdown” value is “completely eliminated”. Besides, the “level of PDGFRβ and PLCγ1 activation” value with PDGFRβ and PLCγ1 is recorded as “diminished to the level of stimulated control group cells”. Also, the “VEGF-dependent activation of VEGFR2 and ERK” value in the data set with VEGFR2 and ERK is recorded as “restored”. Further, the “proliferation and chemotactic transmigration of HASMCs in response to PDGF, enhanced by PrxII knockdown” value with HASMCs is “gradually reduced”. Besides, the “endothelial repair / reendothelialization (CD31 immunofluorescence)” value in data set [2] (local administration after balloon injury) is listed as “endothelium monolayer in contact with lumen was formed”. For the same compound, in data set [2] (local administration to the lumen through catheter, 30 minutes, ETP derivatives 200 nM, 10 days recovery), the “intimal hyperplasia (ratio of intima versus media, HE staining)” value is listed as “notably suppressed”. Moreover, in data set [2] (nanomolar range, local administration), the “cell death by TUNEL staining” value was “did not induce cell death”. Moreover, in data set [2] (rat, in vivo), the “luminal surface endothelial cells by scanning electron microscopy” value was “spread and formed a uniform layer with tight junction”; the “overoxidation of 2-Cys-Prx (Prx-SO2/3 immunohistochemistry) versus control group” value is listed as “no significant differences”.
